We go through 1 molecule from patent US20020039780A1, “Salicyclic acid inducible genes and promoters” (priority 1998, published 2002).

Experiment [1] relates to C18-1/EREBP1. The experiment can be described thus: Northern analysis of mRNA accumulation in cultured tobacco cells. The class given is cell-based. The procedure:
(§1) FIG. 2. Time course of SA-induced gene expression. Northern analysis of representative differential display genes following treatment of cultured tobacco cells with SA for the indicated time (in hours, except lanes 2-4, which refer to 10, 20, and 30 min.). Twenty micrograms of total RNA was loaded per lane. Blots were hybridized with ddPCR fragments indicated at right or with the β-ATPase gene as a loading control probe. Autoradiogram exposure times were optimized for each gene. […] Labels on left indicate response class.
(§2) FIG. 4. Specificity of induction among SA analogs and other signalling compounds. Northern analysis of representative differential display genes following treatment of tobacco cells with 100 μM or 1 mM (left and right side of triangles, respectively) of the following chemicals for 2-2.5 hr: salicylic acid (SA, lanes 4 and 5), acetylSA (ASA, lanes 6 and 7), benzoic acid (BA, lanes 8 and 9), 4-hydroxybenzoic (4HBA, lanes 10 and 11), thiamine (thia, lanes 12 and 13), methyljasmonate (MJ, lanes 14 and 15), abscisic acid (ABA, lanes 16 and 17), or 2,4-dichlorophenoxyacetic acid (2,4-D, lanes 18 and 19). Control treatments are H2O (H, lane 1), 1% ethanol (E, solvent concentration in MJ treatments, lane 2), or 1% DMSO (D, solvent concentration in 2,4D treatments, lane 3). Blots were hybridized with ddPCR fragments indicated at right or with the β-ATPase geneas a loading control probe. Autoradiogram exposure times were optimized for each gene. […] Labels on left indicate response class.
(§3) FIG. 5. Dose response of C18-1 and G8-1 to a range of chemicals. Northern analysis of tobacco cell cultures with eight concentrations of SA, ASA, BA, 4HBA, Thia, MJ, ABA, 2,4-D, or H2O for 2-2.5 hr. Concentrations were 0.1, 1, 3, 10, 30, 100, 300 μM or […], as indicated.
(§4) FIG. 6. […] Graphic representation of mRNA accumulation of G8-1 ( ), C18se -1 (♦), and IEGT (o) in response to a 2-2.5 hr incubation of cultured tobacco cells with a range of SA concentrations. RNA gel blots were quantitated by phosphorimaging analysis and normalized relative to the β-ATPase gene loading control (not shown).
(§5) Differential display technology (Liang, P. and Pardee, A. B., Science 257: 967-971, 1992) was used to identify genes activated in the presence of SA, CHX and both. Therefore the absence or presence of SA, induction at 3 timepoints of SA-treatment, 2 different concentrations of SA and the effect of addition of CHX were measured. Seven treatments in total were performed. Treatment of tobacco BY-2 suspension cells and leaves and differential display PCR reactions were performed as described (Horvath and Chua (1996), Plant Mol. Biol. 31, 1061-1072).
The kinetics of induction were examined in detail through time course experiments for representative clones of each class (FIG. 2).
The specificity for induction by SA was tested by treating tobacco cells with a range of SA analogs and plant signalling compounds at 0.1 and 1 mM for approximately 2.5 h. […] Several genes, including those for proteinase inhibitors and lipoxygenase (Hildmann, T. et al., Plant Cell 4: 1157-1170, 1992; Melan, M. A. et al., Plant Physiol. 101: 441-450, 1993; Xu, D. et al., Plant Mol. Biol. 22: 573-588, 1993) are known to be under dual regulation by MJ and ABA.
A dose-response curve was made for SA. Therefore tobacco cells were treated with SA in a range of concentrations from 0.1 μM to 2 mM.

Experiment [2] concerns G8-1. The description is as above. The class given is cell-based. The procedure: FIG. 1. […] Northern analysis of genes identified by differential display. Gel-purified DNA fragments produced by ddPCR were either used directly for random-primed labeling and probing of Northern filters (e.g. C7-1, C6-1, and G9-2) or first subcloned and released by restriction digest. Each lane contains 1 μg of poly(A) mRNA from cultured tobacco cells treated with (1) H2O, 4 hr; (2) 200 μM SA, 4 hr; (3) 71 μM CHX, 5 hr; (4) 71 μM CHX, 5 hr plus 200 μM SA after 1 hr (4 hr total); (5) 20 μM SA, 2 hr; (7) 200 μM SA, 8 hr.
as §1, §2, §3, §4, §5
The specificity for induction by SA was tested by treating tobacco cells with a range of SA analogs and plant signalling compounds at 0.1 and 1 mM for approximately 2.5 h.

Experiment [3] concerns C18-1/EREBP1. The description is as above. The class given is cell-based. Conditions: SA time course, full length cDNA probe.
The test system of experiment [4] is G8-1. The description is as above. The class given is cell-based. The settings on record: SA 0.1 μM to 2 mM.
For a further experiment, the system named is G1-1/EGT. Conditions: SA; previously shown (Horvath and Chua, 1996); cited from earlier work.
Where [5] appears, read: 0.1 and 1 mM, approximately 2.5 h.

Molecules are shown by their SMILES.

For the molecule `O=C(O)c1ccccc1O` [SA, salicylic acid], the “C18-1/EREBP1 induction at 0.1 mM versus 1 mM” value with C18-1/EREBP1 [1] (setting [5]) is listed as “greater induction at 1mM”. In the experiment with C18-1/EREBP1 [1] (Nicotiana tabacum, tobacco cells, SA 0.1 μM to 2 mM, 2-2.5 hr, read-out: concentration of SA required for half of the maximum level of C18-1/EREBP1 expression), the EC50 was in the range of 100 to 150 µM. Also, the “response zone of C18-1/EREBP1 to SA concentration” value in the experiment on C18-1/EREBP1 [1] (SA 0.1 μM to 2 mM) is listed as “narrow response zone”. Also, in the experiment on C18-1/EREBP1 [1] (SA time course), the “time of decay of C18-1/EREBP1 mRNA to background levels” value was at most 4.5 h and the “time of peak C18-1/EREBP1 mRNA” value is 2 h. In the experiment with G8-1 [2] (20 μM SA), the “G8-1 mRNA levels at 20 μM SA” value is given as “comparable to those at 200 μM”. Besides, in the experiment with G8-1 [2] (setting [5]), the “G8-1 induction at 0.1 mM versus 1 mM” value is recorded as “equal or greater induction at 0.1 mM versus 1 mM”. For the same molecule, the “mRNA induction of G8-1 (class III)” value with G8-1 [2] (SA at 2, 4, 8 h, 71 μM CHX 5 hrs) is recorded as “rapid mRNA induction”. Further, in the experiment with G8-1 [2] (SA time course), the “time at which G8-1 is first detected” value was in the range of 30 to 60 min, the “time at which G8-1 reaches a plateau” value was 2 to 2.5 h and the “time for which G8-1 plateau is maintained” value is reported as “at least 12 h”. The “time at which increase in C18-1/EREBP1 mRNA is first apparent” value in the experiment with C18-1/EREBP1 [3] is 10 min. Moreover, the EC50 with G8-1 [4] (Nicotiana tabacum, tobacco cells, 2-2.5 hr, read-out: concentration of SA required for half of the maximum level of G8-1 expression) is around 1 µM. Also, in the experiment with G8-1 [4], the “response of G8-1 expression to SA concentration range” value is recorded as “activated over a large SA concentration range”. In addition, in the experiment with G1-1/EGT, the “time at which G1-1/EGT is induced” value is 20 to 30 min and the “time of peak G1-1/EGT” value is listed as 3 h.
